# Assay results reported in patent publication US20150011466A1, “APJ Receptor Compounds” (priority 2012, published 2015).
# pEC50: −log10 of the molar value. Where two headings read alike, the source gives them in different places. Where a SMILES comes first, the peptide text is derived from it. [ ]: non-standard residue; d: D form. The star is where a group is joined. Lithocholoyl = C[C@H](CCC(=O)*)[C@H]1CC[C@H]2[C@@H]3CC[C@@H]4C[C@H](O)CC[C@]4(C)[C@H]3CC[C@]12C; Palmitoyl = CCCCCCCCCCCCCCCC(=O)*; Aib = CC(C)(N)C(=O)O
# What was measured:
# [1] = target: T1, APJ receptor (β-arrestin recruitment) (Homo sapiens, UniProt P35414); assay: β-Arrestin signaling assay (DiscoveRx PathHunter, enzyme fragment complementation); type: cell-based
# T1 sequence (P35414 1-380): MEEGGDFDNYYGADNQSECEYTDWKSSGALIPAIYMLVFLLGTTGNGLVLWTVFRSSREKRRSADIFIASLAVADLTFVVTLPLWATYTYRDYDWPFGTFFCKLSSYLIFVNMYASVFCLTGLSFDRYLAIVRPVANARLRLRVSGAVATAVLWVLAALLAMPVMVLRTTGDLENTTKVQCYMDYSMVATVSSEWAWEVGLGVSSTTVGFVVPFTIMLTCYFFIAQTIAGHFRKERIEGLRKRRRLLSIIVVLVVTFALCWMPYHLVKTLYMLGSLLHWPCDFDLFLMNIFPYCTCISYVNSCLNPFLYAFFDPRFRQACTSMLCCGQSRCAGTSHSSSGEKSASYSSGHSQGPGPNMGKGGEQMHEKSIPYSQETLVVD
# Description: Activation of the β-Arrestin signaling pathway was monitored using the commercially available DiscoveRx PathHunter® assay. This assay employs a homogenous, non-imaging assay format called Enzyme Fragment Complementation (EFC) using β-galactosidase (β-Gal) as the functional reporter. […] EA is fused to β-Arrestin and ED is fused to the GPCR of interest. When the GPCR is activated and β-Arrestin is recruited to the receptor, ED and EA complementation occurs, restoring βGal activity which is measured using chemiluminescent PathHunter® Detection Reagent.
# [2] = Histimine (% vs. 48/40)
# [3] = target: T2, APJ receptor (Homo sapiens, UniProt P35414); assay: HTRF cAMP assay, inhibition of NKH477 stimulated cAMP in Human TRex cells expressing APJ upon doxycycline induction (APJ-hTREX); type: cell-based; settings: for Ranking: class combining EC50 and % histamine; for percent intrinsic activity at 0.3 µM: read-out: % IA (@ 300 nM)
# T2 construct: expressed in transfected cells; host or cells: Human TRex cells (doxycycline-inducible)
# T2 sequence (P35414 1-380): T1 sequence (P35414 1-380)
# In short: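 Cells stimulated with NKH477 and cAMP measured by HTRF competitive immunoassay (cryptate anti-cAMP antibody, d2-labeled cAMP). APJ-hTREX cells induced with […] doxycycline and seeded overnight at 40 k/well.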
# [4] = inhibition of NKH477 stimulated cAMP, APJ-hTREX cells, read-out: APJ-hTREX EC50
Histimine (% vs. 48/40) [2] [%],percent intrinsic activity at 0.3 µM [3] [%],"pEC50 [3, 4]",SMILES,β-arrestin recruitment (dose dependent increase in chemiluminescence) ([1]; in words),Emax ([1]; read-out: β-arrestin Signaling Max Response) [%],pEC50 [3],Ranking [3]
,,,CC[C@H](C)[C@H](NC(=O)[C@H](Cc1ccccc1)NC(=O)[C@@H](NC(=O)[C@H](CC(=O)O)NC(=O)[C@H](C)NC(=O)[C@H](CO)NC(=O)[C@H](CCCNC(=N)N)NC(=O)[C@H](CCCNC(=N)N)NC(=O)[C@H](CCCCN)NC(=O)[C@H](CCC(=O)O)NC(=O)[C@H](CO)NC(=O)[C@H](CO)NC(=O)[C@H](CCCNC(=N)N)NC(=O)[C@H](CC(=O)O)NC(=O)[C@@H](NC(=O)[C@@H](NC(=O)CC[C@@H](C)[C@H]1CC[C@H]2[C@@H]3CC[C@@H]4C[C@H](O)CC[C@]4(C)[C@H]3CC[C@]12C)[C@@H](C)O)C(C)C)[C@@H](C)CC)C(N)=O [Compound 82] (Lithocholoyl-TVDRSSEKRRSADIFI-NH2; N-terminus assumed),weakly engaged,20,,
69,55,,CCCCCCCCCCCCCCCC(=O)N[C@H](C(=O)N[C@H](C(=O)N[C@@H](Cc1ccccc1)C(=O)N[C@@H](CCCNC(=N)N)C(=O)N[C@@H](CO)C(=O)N[C@@H](CO)C(=O)N[C@@H](CCC(=O)O)C(=O)N[C@H](CCCCN)C(=O)N[C@@H](CCCNC(=N)N)C(=O)N[C@@H](CCCNC(=N)N)C(=O)N[C@@H](CO)C(=O)N[C@@H](C)C(=O)N[C@@H](CC(=O)O)C(=O)N[C@H](C(=O)N[C@@H](Cc1ccccc1)C(=O)N[C@@H](CCC(N)=O)C(N)=O)[C@@H](C)CC)C(C)C)[C@@H](C)O [Compound 32] (Palmitoyl-TVFRSSE[dK]RRSADIFQ-NH2),,,,
8,27,,CCCCCCCCCCCCCCCC(=O)N[C@H](C(=O)N[C@H](C(=O)N[C@@H](Cc1ccccc1)C(=O)N[C@@H](CCCNC(=N)N)C(=O)N[C@@H](CO)C(=O)N[C@@H](CO)C(=O)N[C@@H](CCC(=O)O)C(=O)N[C@H](CCCCN)C(=O)N[C@@H](CCCNC(=N)N)C(=O)N[C@@H](CCCNC(=N)N)C(=O)N[C@@H](CO)C(=O)N[C@@H](CC(=O)O)C(=O)N[C@@H](CC(=O)O)C(=O)N[C@H](C(=O)N[C@@H](Cc1ccccc1)C(=O)N[C@H](C(N)=O)[C@@H](C)CC)[C@@H](C)CC)C(C)C)[C@@H](C)O [Compound 39] (Palmitoyl-TVFRSSE[dK]RRSDDIFI-NH2),,,,
115,75,,CCCCCCCCCCCCCCCC(=O)N[C@H](C(=O)N[C@H](C(=O)N[C@@H](Cc1ccccc1)C(=O)N[C@@H](CCCNC(=N)N)C(=O)N[C@@H](CO)C(=O)N[C@@H](CO)C(=O)N[C@@H](CCC(=O)O)C(=O)N[C@H](CCCCN)C(=O)N[C@@H](CCCNC(=N)N)C(=O)N[C@@H](CCCNC(=N)N)C(=O)N[C@@H](CO)C(=O)N[C@@H](C)C(=O)N1CCC[C@H]1C(=O)N[C@H](C(=O)N[C@@H](Cc1ccccc1)C(=O)N[C@H](C(N)=O)[C@@H](C)CC)[C@@H](C)CC)C(C)C)[C@@H](C)O [Compound 53] (Palmitoyl-TVFRSSE[dK]RRSAPIFI-NH2),,,,
33,43,,CCCCCCCCCCCCCCCC(=O)N[C@H](C(=O)N[C@H](C(=O)N[C@@H](Cc1ccccc1)C(=O)N[C@@H](CCCNC(=N)N)C(=O)N[C@@H](CO)C(=O)N[C@@H](CO)C(=O)N[C@@H](CCC(=O)O)C(=O)N[C@H](CCCCN)C(=O)N[C@@H](CCCNC(=N)N)C(=O)N[C@@H](CCCNC(=N)N)C(=O)N[C@@H](CO)C(=O)N[C@@H](C)C(=O)N[C@@H](CC(=O)O)C(=O)N[C@H](C(=O)N1CCC[C@H]1C(=O)N[C@H](C(N)=O)[C@@H](C)CC)[C@@H](C)CC)C(C)C)[C@@H](C)O [Compound 55] (Palmitoyl-TVFRSSE[dK]RRSADIPI-NH2),,,,
100,45,,"CCCCCCCCCCCCCCCC(=O)N[C@H](C(=O)N[C@H](C(=O)N[C@@H](Cc1ccccc1)C(=O)N[C@@H](CCCNC(=N)N)C(=O)N[C@@H](CO)C(=O)N[C@@H](CO)C(=O)N[C@@H](CCC(=O)O)C(=O)N[C@H](CCCCN)C(=O)N[C@@H](CCCNC(=N)N)C(=O)N[C@@H](CCCNC(=N)N)C(=O)N[C@@H](CO)C(=O)N[C@@H](C)C(=O)NC(C)(C)C(=O)N[C@H](C(=O)N[C@@H](Cc1ccccc1)C(=O)N[C@H](C(N)=O)[C@@H](C)CC)[C@@H](C)CC)C(C)C)[C@@H](C)O [Compound 65, TVFRSSEkRRSA(Aib)IFI] (Palmitoyl-TVFRSSE[dK]RRSA[Aib]IFI-NH2)",,,,
13,46,6.14,CCCCCCCCCCCCCCCC(=O)N[C@H](C(=O)N[C@H](C(=O)N[C@@H](Cc1ccccc1)C(=O)N[C@@H](CCCNC(=N)N)C(=O)N[C@@H](CO)C(=O)N[C@@H](CO)C(=O)N[C@@H](CCC(=O)O)C(=O)N[C@H](CCCCN)C(=O)N[C@@H](CCCNC(=N)N)C(=O)N[C@@H](CCCNC(=N)N)C(=O)N[C@@H](CC(=O)O)C(=O)N[C@@H](C)C(=O)N[C@@H](CC(=O)O)C(=O)N[C@H](C(=O)N[C@@H](Cc1ccccc1)C(=O)N[C@H](C(N)=O)[C@@H](C)CC)[C@@H](C)CC)C(C)C)[C@@H](C)O [Compound 38] (Palmitoyl-TVFRSSE[dK]RRDADIFI-NH2; C-terminus assumed),,,,* (EC50>500 nM and % histamine>35%)
46,71,7.32,CCCCCCCCCCCCCCCC(=O)N[C@H](C(=O)N[C@H](C(=O)N[C@@H](Cc1ccccc1)C(=O)N[C@@H](CCCNC(=N)N)C(=O)N[C@@H](CO)C(=O)N[C@@H](CO)C(=O)N[C@@H](CCC(=O)O)C(=O)N[C@H](CCCCN)C(=O)N[C@@H](CCCNC(=N)N)C(=O)N[C@@H](CCCNC(=N)N)C(=O)N[C@@H](CO)C(=O)N[C@@H](C)C(=O)N[C@@H](CC(=O)O)C(=O)N[C@@H](CC(=O)O)C(=O)N[C@@H](Cc1ccccc1)C(=O)N[C@H](C(N)=O)[C@@H](C)CC)C(C)C)[C@@H](C)O [Compound 40] (Palmitoyl-TVFRSSE[dK]RRSADDFI-NH2; C-terminus assumed),,,,*** (EC50<100 nM and % histamine>35%)
68,67,,CCCCCCCCCCCCCCCC(=O)N[C@H](C(=O)N[C@H](C(=O)N[C@@H](Cc1ccccc1)C(=O)N[C@@H](CCCNC(=N)N)C(=O)N[C@@H](CO)C(=O)N[C@@H](CO)C(=O)N[C@@H](CCC(=O)O)C(=O)N[C@H](CCCCN)C(=O)N[C@@H](CCCNC(=N)N)C(=O)N[C@@H](CCCNC(=N)N)C(=O)N[C@@H](CO)C(=O)N[C@@H](C)C(=O)N[C@@H](CC(=O)O)C(=O)N[C@H](C(=O)N[C@@H](CCC(N)=O)C(=O)N[C@H](C(N)=O)[C@@H](C)CC)[C@@H](C)CC)C(C)C)[C@@H](C)O [Compound 31] (Palmitoyl-TVFRSSE[dK]RRSADIQI-NH2),,,,

SMILES,Histimine (% vs. 48/40) [2] [%],percent intrinsic activity at 0.3 µM [3] [%],"pEC50 [3, 4]",β-arrestin recruitment (dose dependent increase in chemiluminescence) ([1]; in words),Emax ([1]; read-out: β-arrestin Signaling Max Response) [%],pEC50 [3],Ranking [3]
CCCCCCCCCCCCCCCC(=O)N[C@H](C(=O)N[C@@H](CCC(N)=O)C(=O)N[C@@H](Cc1ccccc1)C(=O)N[C@@H](CCCNC(=N)N)C(=O)N[C@@H](CO)C(=O)N[C@@H](CO)C(=O)N[C@@H](CCC(=O)O)C(=O)N[C@H](CCCCN)C(=O)N[C@@H](CCCNC(=N)N)C(=O)N[C@@H](CCCNC(=N)N)C(=O)N[C@@H](CO)C(=O)N[C@@H](C)C(=O)N[C@@H](CC(=O)O)C(=O)N[C@H](C(=O)N[C@@H](Cc1ccccc1)C(=O)N[C@H](C(N)=O)[C@@H](C)CC)[C@@H](C)CC)[C@@H](C)O [Compound 21] (Palmitoyl-TQFRSSE[dK]RRSADIFI-NH2; C-terminus assumed),39,72,,,,7.39,*** (EC50<100 nM and % histamine>35%)
CCCCCCCCCCCCCCCC(=O)N[C@H](C(=O)N[C@H](C(=O)N[C@@H](Cc1ccccc1)C(=O)N1CCC[C@H]1C(=O)N[C@@H](CO)C(=O)N[C@@H](CO)C(=O)N[C@@H](CCC(=O)O)C(=O)N[C@H](CCCCN)C(=O)N[C@@H](CCCNC(=N)N)C(=O)N[C@@H](CCCNC(=N)N)C(=O)N[C@@H](CO)C(=O)N[C@@H](C)C(=O)N[C@@H](CC(=O)O)C(=O)N[C@H](C(=O)N[C@@H](Cc1ccccc1)C(=O)N[C@H](C(N)=O)[C@@H](C)CC)[C@@H](C)CC)C(C)C)[C@@H](C)O [Compound 44] (Palmitoyl-TVFPSSE[dK]RRSADIFI-NH2; C-terminus assumed),7,74,,,,6.96,**** (EC50 101-500 nM and % histamine<35%)
CCCCCCCCCCCCCCCC(=O)N[C@H](C(=O)NCC(=O)N[C@@H](Cc1ccccc1)C(=O)N[C@@H](CCCNC(=N)N)C(=O)N[C@@H](CO)C(=O)N[C@@H](CO)C(=O)N[C@@H](CCC(=O)O)C(=O)N[C@H](CCCCN)C(=O)N[C@@H](CCCNC(=N)N)C(=O)N[C@@H](CCCNC(=N)N)C(=O)N[C@@H](CO)C(=O)N[C@@H](C)C(=O)N[C@@H](CC(=O)O)C(=O)N[C@H](C(=O)N[C@@H](Cc1ccccc1)C(=O)N[C@H](C(N)=O)[C@@H](C)CC)[C@@H](C)CC)[C@@H](C)O [Compound 69] (Palmitoyl-TGFRSSE[dK]RRSADIFI-NH2; C-terminus assumed),50,77,,,,7.42,*** (EC50<100 nM and % histamine>35%)
